Reference: US10167282B2, “1-(5-tert-butyl-2-aryl-pyrazol-3-yl)-3-[2-fluoro-4-[(3-oxo-4H-pyrido [2, 3-B]pyrazin- 8-yl)oxy]phenyl]urea derivatives as RAF inhibitors for the treatment of cancer” (CANCER RESEARCH TECHNOLOGY LIMITED, priority 2013, dated 2019)
pIC50: −log10 of the molar value. Where two headings read alike, the source gives them in different places.

What was measured:
V600EBRAF = assay: DELFIA kinase assay (BRAF V600E Kinase Assay); type: biochemical, human; conditions: for pIC50: 100 μM ATP
Description: Compounds were assessed in a kinase assay performed according to the following protocol.
^V600EBRAF was generated by infection of SF9 insect cells cultured in SF-900 II medium (Invitrogen, Paisley, Scotland) with a baculovirus containing full-length human BRAF with an N-terminal histidine tag and purified by nickel-agarose affinity chromatography.
Full-length rabbit MEK1 protein was expressed with a GST tag at the N-terminus and a C-terminal histidine tag in Escherichia coli JM109 bacteria and purified by nickel-agarose affinity chromatography.
Combine 4950 μL of DKB and 50 μL of 2.5 mg/mL GST-MEK stock obtained as described above (to give […] of MEK per 40 μL). Then add 22.5 μL of BRAF stock obtained as described above to give ˜0.2 μL of BRAF per 40 μL.
100 mM ATP stock in distilled water, dilute to 500 μM to give 100 μM final concentration in assay.
3. Plate out 40 μL of DKB1 for all inhibitors (test compounds), DMSO control, and optionally other control compounds.
5. Add inhibitors (test compounds) at 0.5 μL per well according to desired plate layout.
8. Pre-incubate with test compounds for 10 minutes at room temperature with shaking.
9. Add 10 μL of 500 μM ATP stock, in DKB, to give 100 μM assay concentration.
10. Seal plates with TopSeal and incubate at room temperature with shaking for 45 minutes.
12. Add 50 μL per well of antibody mix and incubate for 1 hour at room temperature with shaking.
14. Add 100 μL DELFIA enhancement solution per well, cover in foil, and incubate at room temperature for 30 minutes with shaking.
15. Read on Victor plate reader (Perkin-Elmer, Turku, Finland) using Europium protocol.
Values for the blank (Empty Vector) are subtracted from all values. The DMSO controls are set as 100% activity and assay points (the response) are calculated as a percentage of the DMSO control. Data are plotted using Graphpad Prism software and a non-linear regression line is calculated using a variable slope sigmoidal dose-response equation: Y=Bottom+[Top−Bottom]/[1+10^((Log EC50−X)*HillSlope)] where X is the logarithm of concentration and Y is the response. The IC50 generated by this procedure is the concentration of the drug that produces a percentage control fluorescence value midway between the saturation, and zero-effect plateaus. Three independent assays are usually performed and the mean IC50 is reported.

hERG = type: cell-based, human; conditions: read-out: hERG Inhibition IC50
Description: Studies were conducted at Cyprotex Discovery in Cheshire, UK according to the contractor's protocol. The studies were performed on an IonWorks™ HT instrument (Molecular Devices Corporation), which automatically performs electrophysiology measurements in […] single cells simultaneously in a specialised 384-well plate (PatchPlate™). The cells used were Chinese hamster ovary (CHO) cells stably transfected with hERG (cell-line obtained from Cytomyx, UK). A single-cell suspension was prepared in extracellular solution (Dulbecco's phosphate buffered saline with calcium and magnesium pH 7-7.2) and aliquots added automatically to each well of a PatchPlate™. The cells were then positioned over a small hole at the bottom of each well by applying a vacuum beneath the plate to form an electrical seal. The vacuum was applied through a single compartment common to all wells which was filled with intracellular solution (buffered to pH 7.2 with HEPES). The resistance of each seal was measured via a common ground-electrode in the intracellular compartment and individual electrodes placed into each of the upper wells.
Electrical access to the cell was then achieved by circulating a perforating agent, amphotericin, underneath the PatchPlate™ and then measuring the pre-compound hERG current. An electrode was positioned in the extracellular compartment and a holding potential of −80 mV applied for 15 seconds. The hERG channels were then activated by applying a depolarising step to +40 mV for 5 seconds and then clamped at −50 mV for 4 seconds to elicit the hERG tail current, before returning to −80 mV for 0.3 seconds. […]. Quinidine, an established hERG inhibitor, was included as an experimental control. […]. The test compound was left in contact with the cells for 300 seconds before recording currents using the same voltage-step protocol as in the pre-compound scan. Each concentration was tested in 4 replicate wells.
Post-compound currents were expressed as a percentage of pre-compound currents and plotted against concentration for each compound. Where concentration-dependent inhibition was observed, the data were fitted to the following equation: y=(ymax−ymin)/(1+(x/x50)^s)+ymin.
y=(post-compound current/pre-compound current)×100;
x50=concentration required to inhibit current by 50% (IC50); and […]

[1] = test system: mice with collagen-induced arthritis; conditions: cited from earlier work
CRAF = assay: Z'-LYTE biochemical kinase assay; conditions: ATP 100 μM
Description: (§1) Activity Against Other Targets
(§2) Studies were conducted at Life Technologies in Paisley according to the contractor's protocol. TBAP-01 was dissolved in DMSO and assayed at final concentrations ranging from 10 μM to 0.5 nM in 1% DMSO, in the presence of an ATP concentration of 100 μM. IC50 values for test compounds were determined using the Z'-LYTE® biochemical assay employing a fluorescence-based, coupled-enzyme format based on the differential sensitivity of phosphorylated and non-phosphorylated peptides to proteolytic cleavage.

EGFR = assay: Z'-LYTE biochemical kinase assay; conditions: ATP 100 μM
Description: as §1, §2

FGFR1 = assay: Z'-LYTE biochemical kinase assay; conditions: ATP 100 μM
Description: as §1, §2

KDR = assay: Z'-LYTE biochemical kinase assay; conditions: ATP 100 μM
Description: as §1, §2

Lck = assay: Z'-LYTE biochemical kinase assay; conditions: ATP 100 μM
Description: as §1, §2

MET = assay: Z'-LYTE biochemical kinase assay; conditions: ATP 100 μM
Description: as §1, §2

PDGFRα = assay: Z'-LYTE biochemical kinase assay; conditions: ATP 100 μM
Description: as §1, §2

PDGFRβ = assay: Z'-LYTE biochemical kinase assay; conditions: ATP 100 μM
Description: as §1, §2

Src = assay: Z'-LYTE biochemical kinase assay; conditions: ATP 100 μM
Description: as §1, §2

p38α = assay: Z'-LYTE biochemical kinase assay; conditions: ATP 100 μM
Description: as §1, §2

p38γ = assay: Z'-LYTE biochemical kinase assay; conditions: ATP 100 μM
Description: as §1, §2

ABL = assay: Kinase profiling, radioactive (33P-ATP) filter-binding assay; type: biochemical; conditions: at 1 μM
Description: as §1
(§3) Additional studies were conducted at The International Centre for Kinase Profiling in Dundee according to the contractor's protocol. TBAP-01 was dissolved in DMSO and assayed at a final concentration of 1 μM in 2% DMSO against 131 kinases. The assays were carried out using a radioactive (^33P-ATP) filter-binding assay.

DDR2 = assay: as above; type: biochemical; conditions: at 1 μM
Description: as §1, §3

IGF1Rβ = assay: as above; type: biochemical; conditions: not stated whether inhibition or remaining activity
Description: as §1, §3

MINK1 = assay: as above; type: biochemical; conditions: at 1 μM
Description: as §1, §3

TAK1 = assay: as above; type: biochemical; conditions: at 1 μM
Description: as §1, §3

TESK1 = assay: as above; type: biochemical; conditions: at 1 μM
Description: as §1, §3

Tie-2 = assay: as above; type: biochemical; conditions: at 1 μM
Description: as §1, §3

TrkA = assay: as above; type: biochemical; conditions: at 1 μM
Description: as §1, §3

YES1 = assay: as above; type: biochemical; conditions: at 1 μM
Description: as §1, §3

[2] = test system: mutant BRAF WM266.4 cells; assay: Cell based phospho-ERK assay; conditions: Homo sapiens, WM 266-4, 6 h, read-out: Cell-Based Phospho-ERK Assay IC50
Description: Cell Based Phospho-ERK Assay (Mutant BRAF WM266.4 Cells)
Compounds were assessed using a cell-based assay which was performed according to the following protocol.
Plate out 16,000 mutant BRAF WM266.4 cells/well in 99 μL medium in a 96-well plate.
Add 1 μL test compound to the cells (total 1 μL solution).
Incubate the cells with test compound for 6 hours at 37° C.
Read Europium Time Resolved Fluorescence in Victor2 plate reader (Perkin-Elmer, Turku, Finland).
Note that Europium counts are normalised for protein levels by dividing counts by absorbance.
Values for the blank (no cells) are subtracted from all values. The DMSO controls are set as 100% activity and assay points (the response) are calculated as a percentage of the DMSO control. Data are plotted using Graphpad Prism software and a non-linear regression line is calculated using a variable slope sigmoidal dose-response equation: Y=Bottom+[Top−Bottom]/[1+10^((Log EC50−X)*HillSlope)] where X is the logarithm of concentration and Y is the response). The IC50 generated by this procedure is the concentration of the drug that produces a percentage control fluorescence value midway between the saturation, and zero-effect plateaus. Three independent assays are usually performed and the mean IC50 is reported.

[3] = CHO cells stably transfected with hERG, tail current

Cn1c(=O)[nH]c2nccc(Oc3ccc(NC(=O)Nc4cc(C(C)(C)C)nn4-c4cccc(F)c4)c(F)c3)c21 [AA-04, reference compound]
pIC50 (V600EBRAF): 6.19

Cc1ccc(-n2nc(C(C)(C)C)cc2NC(=O)Nc2ccc(Oc3ccnc4[nH]c(=O)cnc34)cc2F)cc1 [AA-018, reference compound]
pIC50 (V600EBRAF): 7.19 | pIC50 (hERG; [3]): < 4.00

CC(C)(C)c1cc(NC(=O)Nc2ccc(Oc3ccnc4[nH]c(=O)cnc34)cc2F)n(-c2ccccc2)n1 [AA-019, reference compound]
pIC50 (V600EBRAF): 7.26 | pIC50 (hERG; [3]): < 4.00

COc1ccc(-n2nc(C(C)(C)C)cc2NC(=O)Nc2ccc(Oc3ccnc4[nH]c(=O)cnc34)cc2F)cn1 [AA-062, reference compound]
pIC50 (V600EBRAF): 7.10 | pIC50 (hERG; [3]): < 4.00

Cc1ccc(-n2nc(C(C)(C)C)cc2NC(=O)Nc2ccc(Oc3ccnc4[nH]c(=O)cnc34)cc2F)cn1 [AA-084, reference compound]
pIC50 (V600EBRAF): 6.15 | pIC50 (hERG; [3]): 4.28

Clc1ccc(Nc2nnc(Cc3ccncc3)c3ccccc23)cc1 [PTK787/ZK222584]
inhibition of knee swelling [1]: 40% | inhibition of severity scores [1]: 51%

CC(C)(C)c1cc(NC(=O)Nc2ccc(Oc3ccnc4[nH]c(=O)cnc34)cc2F)n(-c2cccc(F)c2)n1 [TBAP-01]
fold more potent than Compound AA-04 on the BRAF kinase assay (V600EBRAF): 10 fold | pIC50 (V600EBRAF): 7.21 | fold more potent than Compound AA-084 on the BRAF kinase assay (V600EBRAF; vs AA-084): 11 fold | pIC50 (hERG; [3]): < 4.00 | pIC50 (CRAF): 7.48 | pIC50 (EGFR): 5.72 | pIC50 (FGFR1): 6.33 | pIC50 (KDR): 6.92 | pIC50 (Lck): 7.72 | pIC50 (MET): 5.85 | pIC50 (PDGFRα): 6.10 | pIC50 (PDGFRβ): 6.13 | pIC50 (Src): 7.57 | pIC50 (p38α): 6.33 | pIC50 (p38γ): 6.66 | ABL activity remaining (ABL): 4% activity remaining at 1 μM | DDR2 activity remaining (DDR2): 3% activity remaining at 1 μM | IGF1Rβ % @ 1 μM (IGF1Rβ): 78% @ 1 | MINK1 activity remaining (MINK1): 4% activity remaining at 1 μM | TAK1 activity remaining (TAK1): 6% activity remaining at 1 μM | TESK1 activity remaining (TESK1): 5% activity remaining at 1 μM | Tie-2 activity remaining (Tie-2): 3% activity remaining at 1 μM | TrkA activity remaining (TrkA): 6% activity remaining at 1 μM | YES1 activity remaining (YES1): 6% activity remaining at 1 μM

Cc1cccc(-n2nc(C(C)(C)C)cc2NC(=O)Nc2ccc(Oc3ccnc4[nH]c(=O)cnc34)cc2F)c1 [TBAP-02]
pIC50 (V600EBRAF): 7.00 | pIC50 (hERG): 4.19

CC(C)(C)c1cc(NC(=O)Nc2ccc(Oc3ccnc4[nH]c(=O)cnc34)cc2F)n(-c2cccc(C(F)(F)F)c2)n1 [TBAP-03]
pIC50 (V600EBRAF): 6.89 | pIC50 (hERG; [3]): < 4.00

COc1cccc(-n2nc(C(C)(C)C)cc2NC(=O)Nc2ccc(Oc3ccnc4[nH]c(=O)cnc34)cc2F)c1 [TBAP-04, 1-(3-tert-butyl-1-(3-methoxyphenyl)-1H-pyrazol-5-yl)-3-(2-fluoro-4-(3-oxo-3,4-dihydropyrido[3,2-b]pyrazin-8-yloxy)phenyl)urea]
pIC50 (V600EBRAF): 7.33 | pIC50 (hERG; [3]): < 4.00

CC(C)(C)c1cc(NC(=O)Nc2ccc(Oc3ccnc4[nH]c(=O)cnc34)cc2F)n(-c2ccnc(O)c2)n1 [TBAP-05, 1-(3-tert-butyl-1-(2-oxo-1,2-dihydropyridin-4-yl)-1H-pyrazol-5-yl)-3-(2-fluoro-4-(3-oxo-3,4-dihydropyrido[3,2-b]pyrazin-8-yloxy)phenyl)urea]
pIC50 (V600EBRAF): 6.41 | pIC50 [2]: 6.35
